Data on six molecules can be found in patent US20260207654A1, “HEPARAN SULFATE AND ITS MIMETICS AS CHEMOKINE INHIBITORS” (INDIAN INSTITUTE OF SCIENCE EDUCATION AND RESEARCH, priority 2021, published 2026).

Structures are written as SMILES.

Holding throughout (assay): Chemokine glycan microarray binding assay
Holding throughout (conditions): maximum RFU set as 100% binding, average across 2 glycan concentrations and 3 chemokine dilutions (n=6)

For one assay, the target named is T1, CCL5 (Homo sapiens, UniProt P13501).
T1 sequence (P13501 24-91): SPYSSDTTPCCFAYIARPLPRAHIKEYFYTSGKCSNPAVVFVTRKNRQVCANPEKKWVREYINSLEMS
As for the experimental part:
(§1) Microarray Studies: The compounds of the present invention were covalently immobilized on epoxy group collated glass slides. Slides were rehydrated with dH2O and incubated for 30 min in a staining dish with 50° C. prewarmed ethanolamine (0.05 M) in Tris-HCl (0.1 M, pH 9.0) to block the remaining reactive epoxy groups on the slide surface, then washed with 50° C. prewarmed dH2O. Slides were centrifuged at 200 g for 3 min, then fitted with the ProPlate Multi-Array 16-well slide module (Grace Bio-lab P37001) to divide into the subarrays (blocks). Slides were washed with PBST (0.1% Tween 20), aspirated, and blocked with 200 μL/subarray of blocking buffer (PBS pH 7.3+1% w/v ovalbumin) for 1 h at RT with gentle shaking. Next, the blocking solution was aspirated and 100 μL/block of primary chemokines diluted in PBS pH 7.3+1% w/v ovalbumin were incubated with gentle shaking for 2 hours at RT. Slides were washed 4 times with PBST, then with PBS (without Tween-20) for 2 min. Bound antibodies were detected by incubating with biotinylated secondary detections (1 ng/μL) diluted in PBS, 200 μL/block at RT for 1 h. Slides were washed 4 times with PBST, then with PBS (without Tween-20) for 2 min and biotinylated antibodies were detected with Cy3-SA ([…]). Slides were washed 4 times with PBST, then with PBS for 10 min followed by removal from the ProPlate Multi-Array slide module and immediately dipping in a staining dish with dH2O for 10 min with shaking. The slides were then centrifuged at 200 g for 3 min, and the dry slides immediately scanned. Binding was tested at three serial dilutions, then detected with the relevant biotinylated secondary antibody (1 μg/mL) followed by Cy3-strepavidin (1.5 μg/mL). Arrays were scanned and RFUs were calculated of chemokines binding to 100 μM glycans printed at four replicates. Rank binding of chemokines (each at three dilutions) to glycans printed at four replicates each was calculated and summarized in Table 1. For each binding assay per printed block, the maximum RFU was determined and set as 100% binding. Then, binding to all other glycans in the same block was ranked in comparison to the maximal binding, and average rank binding (and SEM) for each glycan across the three examined concentrations of each chemokine was calculated. This analysis allowed to compare the glycan-binding profiles of the different chemokines and dissect their binding preferences.
(§2) Table 1. Chemokine glycan microarray binding assay. Binding was tested at 3 serial dilutions, then detected with the relevant biotinylated secondary antibody (1 μg/ml) followed by Cy3-Strepavidin (1.5 μg/ml) (Table SX). Arrays were scanned, relative fluorescent units (RFU) obtained, and maximum RFU determined and set as 100% binding. Then rank binding (per printed glycan per concentration, per each chemokine dilution, per printed block) was determined. Since each glycans was printed at 2 concentration, 100% binding was set separately for each concentration. Then, binding to all the other glycans at the same concentration was ranked in comparison to the maximal binding, and the average rank binding and SEM for each glycan across the two glycan concentrations and three examined dilutions of each chemokine was calculated (n=6, 2 glycan concentrations across 3 chemokine dilutions). This analysis allowed to compare the glycan binding profiles of the different chemokines and dissect their binding preferences. The mean rank is shown as a heatmap of all the examined binding assays together (red highest, blue lowest and white 50th percentile of ranking).

The target of the next assay is T2, CXCL10 (Homo sapiens, UniProt P02778).
T2 sequence (P02778 22-98): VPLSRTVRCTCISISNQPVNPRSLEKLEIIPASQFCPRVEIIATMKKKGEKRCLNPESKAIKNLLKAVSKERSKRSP
As to the method: as §1, §2

In a further assay the target is T3, CCL21 (Homo sapiens, UniProt O00585).
T3 sequence (O00585 24-134): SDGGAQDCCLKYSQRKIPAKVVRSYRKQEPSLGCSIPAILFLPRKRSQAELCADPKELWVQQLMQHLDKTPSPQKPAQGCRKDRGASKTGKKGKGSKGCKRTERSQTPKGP
As for the experimental part: as §1, §2

Another assay has as its target T4, CCL28 (Homo sapiens, UniProt Q9NRJ3).
T4 sequence (Q9NRJ3 20-127): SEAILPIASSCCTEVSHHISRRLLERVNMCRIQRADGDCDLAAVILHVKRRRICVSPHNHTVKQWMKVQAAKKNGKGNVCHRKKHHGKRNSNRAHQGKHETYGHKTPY
As for the experimental part:
as §1, §2

Another assay addresses CCL7 (Homo sapiens, UniProt P80098). As for the experimental part:
as §1, §2

The target in another assay is CCL13 (Homo sapiens, UniProt Q99616). As to the method: as §1, §2
A further assay concerns the target T5, CXCL8 (Homo sapiens, UniProt P10145).
T5 sequence (P10145 21-99): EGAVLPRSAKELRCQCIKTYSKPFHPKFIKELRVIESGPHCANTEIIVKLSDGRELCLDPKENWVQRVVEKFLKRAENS
As for the experimental part: as §1, §2

A further assay has as its target CCL2 (Homo sapiens, UniProt P13500). As for the experimental part:
as §1, §2

A further assay has as its target CXCL12 (Homo sapiens, UniProt P48061). As for the experimental part: as §1, §2

Chain of CCL13 (Q99616 17-98, species assumed): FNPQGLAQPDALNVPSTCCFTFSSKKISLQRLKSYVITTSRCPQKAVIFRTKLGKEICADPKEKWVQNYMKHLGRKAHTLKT
Chain of CCL2 (P13500 24-99, species assumed): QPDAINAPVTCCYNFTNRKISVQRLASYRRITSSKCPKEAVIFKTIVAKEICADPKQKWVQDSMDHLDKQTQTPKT
Chain of CCL7 (P80098 24-99, species assumed): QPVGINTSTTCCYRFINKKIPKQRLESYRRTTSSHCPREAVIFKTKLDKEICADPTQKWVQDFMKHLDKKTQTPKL
Chain of CXCL12 (P48061 22-93, species assumed): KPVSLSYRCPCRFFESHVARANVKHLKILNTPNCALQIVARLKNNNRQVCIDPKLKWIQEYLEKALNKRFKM

On to `NCCCO[C@@H]1O[C@@H](C(=O)O)[C@@H](O[C@H]2O[C@H](CO)[C@@H](O[C@@H]3O[C@@H](C(=O)O)[C@@H](O[C@H]4O[C@H](CO)[C@@H](O)[C@H](OS(=O)(=O)O)[C@H]4N)[C@H](O)[C@H]3OS(=O)(=O)O)[C@H](OS(=O)(=O)O)[C@H]2N)[C@H](O)[C@H]1OS(=O)(=O)O` [Example 18, 3-Aminopropyl-O-[(2-amino-3-O-sulfonato-2-deoxy-α-D-glucopyranosyl)-(1→4)-O-(2-O-sulfonato-α-L-idopyranosyluronate)-(1→4)-O-(2-amino-3-O-sulfonato-2-deoxy-α-D-glucopyranosyl)]-(1→4)-O-2-O-sulfonato-α-L-idopyranosiduronate], for which, on CCL5, the “mean rank binding to CCL5” value came out at 4%. For the same molecule, at CXCL10, the “mean rank binding to CXCL10” value worked out at 27%. Besides, the “mean rank binding to CCL21” value on CCL21 was 48%. The “mean rank binding to CCL28” value at CCL28 is given as 66%. For the same molecule, the “mean rank binding to CCL7” value on CCL7 worked out at 35%. The “mean rank binding to CCL13” value at CCL13 amounted to 64%. For the same molecule, the “mean rank binding to CXCL8” value on CXCL8 was determined as 9%. On CCL2, the “mean rank binding to CCL2” value worked out at 1%. Besides, at CXCL12, the “mean rank binding to CXCL12” value turned out to be 45%.

As to `CC(=O)NC1C(O)[C@H](O)C(COS(=O)(=O)O)O[C@@H]1O[C@@H]1C(C(=O)O)O[C@@H](O[C@@H]2C(COS(=O)(=O)O)O[C@H](O[C@@H]3C(C(=O)O)O[C@@H](OCCCN)C(OS(=O)(=O)O)C3O)C(NC(C)=O)C2O)C(OS(=O)(=O)O)C1O` (stereo partly drawn) [Example 20, 3-Aminopropyl-O-[(2-acetamido-6-O-sulfonato-2-deoxy-α-D-glucopyranosyl)-(1→4)-O-(2-O-sulfonato-α-L-idopyranosyluronate)-(1→4)-O-(2-acetamido-6-O-sulfonato-2-deoxy-α-D-glucopyranosyl)]-(1→4)-O-2-O-sulfonato-α-L-idopyranosiduronate], the “mean rank binding to CCL5” value at CCL5 amounted to 54%. In addition, at CXCL10, the “mean rank binding to CXCL10” value was 64%. Further, at CCL21, the “mean rank binding to CCL21” value came to 71%. The “mean rank binding to CCL28” value at CCL28 stood at 66%. In addition, the “mean rank binding to CCL7” value on CCL7 worked out at 86%. Moreover, the “mean rank binding to CCL13” value on CCL13 is listed as 79%. Besides, the “mean rank binding to CXCL8” value at CXCL8 was 53%. In addition, the “mean rank binding to CCL2” value on CCL2 is listed as 30%. The “mean rank binding to CXCL12” value on CXCL12 was 69%.

In the case of `CC(=O)N[C@H]1[C@@H](O[C@H]2[C@H](O)[C@@H](OP(=O)(O)O)[C@H](OCCCN)O[C@H]2C(=O)O)O[C@H](COP(=O)(O)O)[C@@H](O[C@@H]2O[C@@H](C(=O)O)[C@@H](O[C@H]3O[C@H](COP(=O)(O)O)[C@@H](O)[C@H](O)[C@H]3NC(C)=O)[C@H](O)[C@H]2OP(=O)(O)O)[C@@H]1O` [Example 21, 3-Aminopropyl-O-[(2-acetamido-6-O-phosphonato-2-deoxy-α-D-glucopyranosyl)-(1→4)-O-(2-O-phosphonato-α-L-idopyranosyluronate)-(1→4)-O-(2-acetamido-6-O-phosphonato-2-deoxy-α-D-glucopyranosyl)]-(1→4)-O-2-O-phosphonato-α-L-idopyranosiduronate], the “mean rank binding to CCL5” value on CCL5 is 14%. In addition, on CXCL10, the “mean rank binding to CXCL10” value is given as 55%. On CCL21, the “mean rank binding to CCL21” value is listed as 78%. The “mean rank binding to CCL28” value on CCL28 was 78%. Also, the “mean rank binding to CCL7” value on CCL7 worked out at 56%. In addition, the “mean rank binding to CCL13” value on CCL13 is recorded as 87%. At CXCL8, the “mean rank binding to CXCL8” value worked out at 29%. At CCL2, the “mean rank binding to CCL2” value is recorded as 2%. Also, the “mean rank binding to CXCL12” value on CXCL12 is 59%.

With `NCCCO[C@@H]1O[C@@H](C(=O)O)[C@@H](O[C@H]2O[C@H](CO)[C@@H](O[C@@H]3O[C@@H](C(=O)O)[C@@H](O[C@H]4O[C@H](CO)[C@@H](O)[C@H](OS(=O)(=O)O)[C@H]4N)[C@H](O)[C@H]3O)[C@H](OS(=O)(=O)O)[C@H]2N)[C@H](O)[C@H]1O` [Example 22, 3-Aminopropyl-O-[(2-amino-3-O-sulfonato-2-deoxy-α-D-glucopyranosyl)-(1→4)-O-(α-L-idopyranosyluronate)-(1→4)-O-(2-amino-3-O-sulfonato-2-deoxy-α-D-glucopyranosyl)]-(1→4)-O-α-L-idopyranosiduronate], at CCL5, the “mean rank binding to CCL5” value is reported as 20%. For the same molecule, the “mean rank binding to CXCL10” value at CXCL10 is 65%. For the same molecule, the “mean rank binding to CCL21” value at CCL21 amounted to 83%. Also, the “mean rank binding to CCL28” value on CCL28 worked out at 62%. For the same molecule, the “mean rank binding to CCL7” value at CCL7 is on record as 78%. For the same molecule, the “mean rank binding to CCL13” value on CCL13 is 58%. Also, the “mean rank binding to CXCL8” value on CXCL8 stood at 51%. The “mean rank binding to CCL2” value at CCL2 stood at 28%. In addition, the “mean rank binding to CXCL12” value at CXCL12 came out at 84%.

With `NCCCO[C@@H]1OC(C(=O)O)[C@@H](O[C@H]2OC(COS(=O)(=O)O)[C@@H](O[C@@H]3OC(C(=O)O)[C@@H](O[C@H]4OC(COS(=O)(=O)O)[C@@H](O)[C@H](O)C4N)C(O)[C@@H]3O)[C@H](O)C2N)C(O)[C@@H]1O` (stereo partly drawn) [Example 23, 3-Aminopropyl-O-[(2-amino-6-O-sulfonato-2-deoxy-α-D-glucopyranosyl)-(1→4)-O-(α-L-idopyranosyluronate)-(1→4)-O-(2-amino-6-O-sulfonato-2-deoxy-α-D-glucopyranosyl)]-(1→4)-O-α-L-idopyranosiduronate], the “mean rank binding to CCL5” value at CCL5 was 3%. In addition, at CXCL10, the “mean rank binding to CXCL10” value came to 15%. Moreover, the “mean rank binding to CCL21” value on CCL21 turned out to be 25%. In addition, the “mean rank binding to CCL28” value at CCL28 is reported as 38%. At CCL7, the “mean rank binding to CCL7” value is reported as 11%. At CCL13, the “mean rank binding to CCL13” value was 45%. Moreover, the “mean rank binding to CXCL8” value at CXCL8 was found to be 5%. The “mean rank binding to CCL2” value on CCL2 was determined as 1%. Also, the “mean rank binding to CXCL12” value at CXCL12 was determined as 25%.

Take `CC(=O)NC1C(O)[C@H](O)C(COS(=O)(=O)O)O[C@@H]1O[C@@H]1C(C(=O)O)O[C@@H](O[C@@H]2C(COS(=O)(=O)O)O[C@H](O[C@@H]3C(C(=O)O)O[C@@H](OCCCN)C(O)C3O)C(NC(C)=O)C2O)C(O)C1O` (stereo partly drawn) [Example 24, 3-Aminopropyl-O-[(2-acetamido-6-O-sulfonato-2-deoxy-α-D-glucopyranosyl)-(1→4)-O-(α-L-idopyranosyluronate)-(1→4)-O-(2-acetamido-6-O-sulfonato-2-deoxy-α-D-glucopyranosyl)]-(1→4)-O-α-L-idopyranosiduronate]: the “mean rank binding to CCL5” value on CCL5 was found to be 24%. Besides, the “mean rank binding to CXCL10” value on CXCL10 was 41%. Moreover, the “mean rank binding to CCL21” value on CCL21 is 79%. Also, on CCL28, the “mean rank binding to CCL28” value is recorded as 79%. Further, the “mean rank binding to CCL7” value at CCL7 turned out to be 73%. Besides, the “mean rank binding to CCL13” value on CCL13 is 81%. Besides, the “mean rank binding to CXCL8” value on CXCL8 worked out at 19%. In addition, the “mean rank binding to CCL2” value on CCL2 came out at 13%. In addition, the “mean rank binding to CXCL12” value at CXCL12 is on record as 66%.
